# Measurements published in patent US20250195530A1, “POLQ INHIBITORS” (ASTRAZENECA AB, priority 2022, published 2025).
# Read-outs that look alike come from different tables or passages of the source.
# Tests used:
# DLD-1 cells = assay: Inhibition of proliferation, DLD-1 BRCA2 wt control (Cell Titre Glo 3D); type: cell-based; details: Homo sapiens
# In short: (§1)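 Wild-type DLD-1 serves as the control for non-specific toxicity, and BRCA2-null DLD-1 as the homologous-recombination-deficient line. Both grew with compound from 10 μM down to 0.51 nM, re-dosed after 6 days. Luminescent ATP content (CellTiter-Glo 3D) was read after 7 or 12 days, respectively, to give IC50 values.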
# DLD-1 BRCA2−/− cells = assay: Homologous recombination synthetic lethal inhibition of proliferation, DLD-1 BRCA2-/- (Cell Titre Glo 3D); type: cell-based; details: Homo sapiens
# In short: as §1
# [1] = DLD-1, proliferation, luminescence, second Prolif column (c6), taken as DLD-1 BRCA2 wt control, read-out: POLQ PD Prolif Lumin (converted)
# [2] = DLD-1, proliferation, luminescence, taken as DLD-1 BRCA2-/-, read-out: POLQ PD Prolif Lumin (converted)
# [3] = DLD-1, 168 h, DLD-1 BRCA2 wt cells, 7 days, read-out: POLQ PD Prolif Lumin DLD1 mean pIC50 (converted)
# [4] = DLD-1, 288 h, DLD-1 BRCA2−/− cells, 12 days, read-out: POLQ PD Prolif Lumin BRCA2 −/− mean pIC50 (converted)
# [5] = DLD-1, DLD1 BRCA2 wt, mean, read-out: POLQ PD Prolif Lumin DLD1 mean pIC50 (converted)
# [6] = DLD-1, DLD-1 BRCA2 −/−, mean, read-out: POLQ PD Prolif Lumin BRCA2 −/− mean pIC50 (converted)
# [7] = DLD-1, second proliferation column (c6), taken as DLD-1 BRCA2 wt, read-out: POLQ PD Prolif Lumin (converted)
# [8] = DLD-1, first proliferation column (c5), taken as DLD-1 BRCA2-/-, read-out: POLQ PD Prolif Lumin (converted)
# [9] = DLD-1, 168 h, DLD-1 (BRCA2 wt control), 7 days, Cell Titre Glo 3D, read-out: POLQ PD Prolif Lumin DLD1 Mean pIC50 (converted)
# [10] = DLD-1, 288 h, DLD-1 BRCA2−/−, 12 days, Cell Titre Glo 3D, read-out: POLQ PD Prolif Lumin BRCA2 −/− Mean pIC50 (converted)
compound,measurement,setting,value
"CC(CCOc1ccc(-c2nc3c(OC4(C)CC4)ncnc3n2Cc2cccc(C#N)c2)c(Cl)c1)C(=O)O (racemic) [Example T399, 4-(3-chloro-4-(9-(3-cyanobenzyl)-6-(1-methylcyclopropoxy)-9H-purin-8-yl)phenoxy)-2-methylbutanoic acid]",IC50,DLD-1 cells; [1],> 10000 nM
same,IC50,DLD-1 BRCA2−/− cells; [2],316 nM
"Cc1cccnc1Cn1c(-c2ccc(OCCN3CCNCC3)cc2Cl)nc2c(OC3(C)CC3)ncnc21 [Example L9, 8-(2-chloro-4-(2-(piperazin-1-yl)ethoxy)phenyl)-6-(1-methylcyclopropoxy)-9-((3-methylpyridin-2-yl)methyl)-9H-purine]",IC50,DLD-1 cells; [3],> 10000 nM
same,IC50,DLD-1 BRCA2−/− cells; [4],3160 nM
"C[C@H](CCOc1cccc(-c2nc3c(OC4(C)CC4)ncnc3n2Cc2cc(Cl)ccc2F)c1Cl)C(=O)O [Example U26, (R)-4-(2-chloro-3-(9-(5-chloro-2-fluorobenzyl)-6-(1-methylcyclopropoxy)-9H-purin-8-yl)phenoxy)-2-methylbutanoic acid]",IC50,DLD-1 cells; [5],> 10000 nM
same,IC50,DLD-1 BRCA2−/− cells; [6],25.1 nM
"Cc1cnc(Cn2c(-c3ccc(OC4CC5(C4)CN(C)C5)cc3Cl)nc3c(OC4(C)CC4)ncnc32)s1 [Example T359, 2-((8-(2-chloro-4-((2-methyl-2-azaspiro[3.3]heptan-6-yl)oxy)phenyl)-6-(1-methylcyclopropoxy)-9H-purin-9-yl)methyl)-5-methylthiazole]",IC50,DLD-1 cells; [7],> 10000 nM
same,IC50,DLD-1 BRCA2−/− cells; [8],501 nM
"CC(C)(Oc1ncnc2c1nc(-c1ccc(OCCN3CCNCC3)cc1Cl)n2Cc1ccccc1)C(F)(F)F [Example 11, 9-Benzyl-8-(2-chloro-4-(2-(piperazin-1-yl)ethoxy)phenyl)-6-((1,1,1-trifluoro-2-methylpropan-2-yl)oxy)-9H-purine]",IC50,DLD-1 cells; [3],794 nM
same,IC50,DLD-1 BRCA2−/− cells; [4],251 nM
"CC1(Oc2ncnc3c2nc(-c2ccc(/C=C/C(=O)O)cc2Cl)n3Cc2cccc(Cl)c2)CC1 [Example 31, (E)-3-(3-Chloro-4-(9-(3-chlorobenzyl)-6-(1-methylcyclopropoxy)-9H-purin-8-yl)phenyl)acrylic acid]",IC50,DLD-1 cells; [9],> 10000 nM
same,IC50,DLD-1 BRCA2−/− cells; [10],398 nM
"Cc1ccnc(Cn2c(-c3ccc(CC(=O)NC[C@H](C)O)cc3Cl)nc3c(OC4(C)CC4)ncnc32)c1 [Example T371, (S)-2-(3-chloro-4-(6-(1-methylcyclopropoxy)-9-((4-methylpyridin-2-yl)methyl)-9H-purin-8-yl)phenyl)-N-(2-hydroxypropyl)acetamide]",IC50,DLD-1 cells; [7],> 10000 nM
same,IC50,DLD-1 BRCA2−/− cells; [8],1000 nM
"Cc1ccnc(Cn2c(-c3ccc(CC(=O)N4CCNC(=O)C4)cc3Cl)nc3c(OC4(C)CC4)ncnc32)c1 [Example T431, 4-(2-(3-chloro-4-(6-(1-methylcyclopropoxy)-9-((4-methylpyridin-2-yl)methyl)-9H-purin-8-yl)phenyl)acetyl)piperazin-2-one]",IC50,DLD-1 cells; [1],> 10000 nM
same,IC50,DLD-1 BRCA2−/− cells; [2],2510 nM
"Cc1ccnc(Cn2c(-c3ccc(N4C[C@H]5C[C@@H]4CN5)cc3Cl)nc3c(OC4(C)CC4)ncnc32)c1 [Example T336, 8-(4-((1R,4R)-2,5-diazabicyclo[2.2.1]heptan-2-yl)-2-chlorophenyl)-6-(1-methylcyclopropoxy)-9-((4-methylpyridin-2-yl)methyl)-9H-purine]",IC50,DLD-1 cells; [7],> 10000 nM
same,IC50,DLD-1 BRCA2−/− cells; [8],1580 nM
"CC1(Oc2ncnc3c2nc(-c2ccc(CN)cc2Cl)n3Cc2ccccc2)CC1 [Example N7, (4-(9-benzyl-6-(1-methylcyclopropoxy)-9H-purin-8-yl)-3-chlorophenyl)methanamine]",IC50,DLD-1 cells; [3],6310 nM
same,IC50,DLD-1 BRCA2−/− cells; [4],631 nM
"CN(C)CCCOc1ccc(-c2nc3c(OC4(C)CC4)ncnc3n2Cc2cc(C(F)F)ccn2)c(Cl)c1 [Example T352, 3-(3-chloro-4-(9-((4-(difluoromethyl)pyridin-2-yl)methyl)-6-(1-methylcyclopropoxy)-9H-purin-8-yl)phenoxy)-N,N-dimethylpropan-1-amine]",IC50,DLD-1 cells; [7],> 10000 nM
same,IC50,DLD-1 BRCA2−/− cells; [8],158 nM
"COc1cccc(-c2nc3c(OC4(C)CC4)ncnc3n2Cc2ccccc2)c1Cl [Example C6, 9-benzyl-8-(2-chloro-3-methoxyphenyl)-6-(1-methylcyclopropoxy)-9H-purine]",IC50,DLD-1 cells; [3],> 10000 nM
same,IC50,DLD-1 BRCA2−/− cells; [4],79.4 nM
"Cc1cc(OCCN2CCN(C)CC2)ncc1-c1nc2c(OC3(C)CC3)ncnc2n1Cc1ccccc1 [Example C3, 9-benzyl-8-(4-methyl-6-(2-(4-methylpiperazin-1-yl)ethoxy)pyridin-3-yl)-6-(1-methylcyclopropoxy)-9H-purine]",IC50,DLD-1 cells; [3],7940 nM
same,IC50,DLD-1 BRCA2−/− cells; [4],316 nM
"CN1CCN(CCOc2ccc(-c3nc4c(OC5(C)CC5)ncnc4n3Cc3ccccn3)c(Cl)c2)CC1 [Example E5, 8-(2-chloro-4-(2-(4-methylpiperazin-1-yl)ethoxy)phenyl)-6-(1-methylcyclopropoxy)-9-(pyridin-2-ylmethyl)-9H-purine]",IC50,DLD-1 cells; [3],7940 nM
same,IC50,DLD-1 BRCA2−/− cells; [4],501 nM
"COc1ccc(C)cc1Cn1c(-c2cccc(OCCC(=O)O)c2Cl)nc2c(OC3(C)CC3)ncnc21 [Example U89, 3-(2-chloro-3-(9-(2-methoxy-5-methylbenzyl)-6-(1-methylcyclopropoxy)-9H-purin-8-yl)phenoxy)propanoic acid]",IC50,DLD-1 cells; [5],7940 nM
same,IC50,DLD-1 BRCA2−/− cells; [6],15.8 nM
"COc1ccc(C#N)cc1Cn1c(-c2ccc(OCCC(C)C(=O)O)cc2Cl)nc2c(OC3(C)CC3)ncnc21 (racemic) [Example U14, 4-(3-chloro-4-(9-(5-cyano-2-methoxybenzyl)-6-(1-methylcyclopropoxy)-9H-purin-8-yl)phenoxy)-2-methylbutanoic acid]",IC50,DLD-1 cells; [5],> 10000 nM
same,IC50,DLD-1 BRCA2−/− cells; [6],398 nM
"CC1(Oc2ncnc3c2nc(-c2ccc(OCCN4CC5(CNC(=O)C5)C4)cc2Cl)n3Cc2ccccc2)CC1 [Example R8, 2-(2-(4-(9-benzyl-6-(1-methylcyclopropoxy)-9H-purin-8-yl)-3-chlorophenoxy)ethyl)-2,6-diazaspiro[3.4]octan-7-one]",IC50,DLD-1 cells; [3],3980 nM
same,IC50,DLD-1 BRCA2−/− cells; [4],251 nM
"Cc1cccc(C)c1Cn1c(-c2ccc(OCCC(C)C(=O)O)cc2Cl)nc2c(OC3(C)CC3)ncnc21 (racemic) [Example T571, 4-(3-chloro-4-(9-(2,6-dimethylbenzyl)-6-(1-methylcyclopropoxy)-9H-purin-8-yl)phenoxy)-2-methylbutanoic acid]",IC50,"DLD-1 cells; DLD-1, second proliferation column (c6), DLD-1 BRCA2 wt control, read-out: POLQ PD Prolif Lumin (converted)",> 10000 nM
same,IC50,"DLD-1 BRCA2−/− cells; DLD-1, first proliferation column (c5), DLD-1 BRCA2-/-, read-out: POLQ PD Prolif Lumin (converted)",1260 nM
"CN1CCN(C(=O)COc2ccc(-c3nc4c(OC5(C)CC5)ncnc4n3Cc3ccccc3)c(Cl)c2)CC1 [Example C9, 2-(4-(9-benzyl-6-(1-methylcyclopropoxy)-9H-purin-8-yl)-3-chloro-phenoxy)-1-(4-methyl-piperazin-1-yl)ethan-1-one]",IC50,DLD-1 cells; [3],> 10000 nM
same,IC50,DLD-1 BRCA2−/− cells; [4],126 nM
"C[C@@H](CCOc1ccc(-c2nc3c(OC4(C)CC4)ncnc3n2Cc2cc(Cl)ccc2C#N)c(Cl)c1)C(=O)O [Example U82, (S)-4-(3-chloro-4-(9-(5-chloro-2-cyanobenzyl)-6-(1-methylcyclopropoxy)-9H-purin-8-yl)phenoxy)-2-methylbutanoic acid]",IC50,DLD-1 cells; [5],> 10000 nM
same,IC50,DLD-1 BRCA2−/− cells; [6],50.1 nM
"Cc1ccnc(Cn2c(-c3ccc(N4CCS(=O)(=O)CC4)cc3Cl)nc3c(OC4(C)CC4)ncnc32)c1 [Example T225, 4-(3-chloro-4-(6-(1-methylcyclopropoxy)-9-((4-methylpyridin-2-yl)methyl)-9H-purin-8-yl)phenyl)thiomorpholine 1,1-dioxide]",IC50,"DLD-1 cells; DLD-1, DLD-1 BRCA2 wt control proliferation, column head only partly shown, read-out: POLQ PD Prolif Lumin (converted)",> 10000 nM
same,IC50,"DLD-1 BRCA2−/− cells; DLD-1, DLD-1 BRCA2-/- proliferation, column head only partly shown, read-out: POLQ PD Prolif Lumin (converted)",631 nM
"CC1(Oc2ncnc3c2nc(-c2ccc(OCCN4CCNCC4)cc2Cl)n3Cc2cscn2)CC1 [Example K2, 4-((8-(2-chloro-4-(2-(piperazin-1-yl)ethoxy)phenyl)-6-(1-methylcyclopropoxy)-9H-purin-9-yl)methyl)thiazole]",IC50,DLD-1 cells; [3],6310 nM
same,IC50,DLD-1 BRCA2−/− cells; [4],2000 nM
"Cc1ccnc(Cn2c(-c3ccc(OC[C@H](C)O)cc3Cl)nc3c(OC4(C)CC4)ncnc32)c1 [Example 36, (S)-1-(3-Chloro-4-(6-(1-methylcyclopropoxy)-9-((4-methylpyridin-2-yl)methyl)-9H-purin-8-yl)phenoxy)propan-2-ol]",IC50,DLD-1 cells; [9],> 10000 nM
same,IC50,DLD-1 BRCA2−/− cells; [10],251 nM
"CC(=O)NCCCOc1ccc(-c2nc3cc(OC(C)C)ccc3n2Cc2ccccc2)c(Cl)c1 [Example A3, N-(3-(4-(1-benzyl-5-isopropoxy-1H-benzo[d]imidazol-2-yl)-3-chlorophenoxy)propyl)acetamide]",IC50,DLD-1 cells; [3],5010 nM
same,IC50,DLD-1 BRCA2−/− cells; [4],501 nM
"CC1(Oc2ncnc3c2nc(-c2ccc(OCCN4CCNCC4)c(Cl)c2Cl)n3Cc2ccccc2)CC1 [Example J1, 9-benzyl-8-(2,3-dichloro-4-(2-(piperazin-1-yl)ethoxy)phenyl)-6-(1-methylcyclopropoxy)-9H-purine]",IC50,DLD-1 cells; [3],501 nM
same,IC50,DLD-1 BRCA2−/− cells; [4],251 nM
